This passage reports relative viability results from the supplement of paper PMC10307832.

Experiment in all cases: relative viability (nuclei count vs DMSO), 5 days (fraction); higher = more cells survive
Compound in the experiment “Alisertib + Palbociclib”: COc1cc(Nc2ncc3c(n2)-c2ccc(Cl)cc2C(c2c(F)cccc2OC)=NC3)ccc1C(=O)O [Alisertib] + CC(=O)c1c(C)c2cnc(Nc3ccc(N4CCNCC4)cn3)nc2n(C2CCCC2)c1=O [Palbociclib] (partner 0.5 µM)
Summed up:
(§1)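 Relative viability equals treated-well nuclei counts divided by vehicle-well nuclei counts. Counts came from 4× images of lung cancer cell lines grown in 1536-well plates for 5 days after pin-tool dosing on the day after seeding. Dosing used one drug alone or a fixed anchor-drug dose plus five library-drug doses (not always all listed) in √10 steps, and values are medians of duplicate plates.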

Compound in the experiment “Alisertib + Bortezomib”: COc1cc(Nc2ncc3c(n2)-c2ccc(Cl)cc2C(c2c(F)cccc2OC)=NC3)ccc1C(=O)O [Alisertib] + CC(C)C[C@H](NC(=O)[C@H](Cc1ccccc1)NC(=O)c1cnccn1)B(O)O [Bortezomib] (partner 0.002 µM)
An outline of the steps: as §1

Compound in the experiment “Alisertib + Alpelisib”: COc1cc(Nc2ncc3c(n2)-c2ccc(Cl)cc2C(c2c(F)cccc2OC)=NC3)ccc1C(=O)O [Alisertib] + Cc1nc(NC(=O)N2CCC[C@H]2C(N)=O)sc1-c1ccnc(C(C)(C)C(F)(F)F)c1 [Alpelisib] (partner 2 µM)
Summed up:
as §1

Compound in the experiment “Alisertib + Dasatinib”: COc1cc(Nc2ncc3c(n2)-c2ccc(Cl)cc2C(c2c(F)cccc2OC)=NC3)ccc1C(=O)O [Alisertib] + Cc1nc(Nc2ncc(C(=O)Nc3c(C)cccc3Cl)s2)cc(N2CCN(CCO)CC2)n1 [Dasatinib] (partner 0.075 µM)
Summed up: as §1

As to LOU-NH91, the relative viability with Alisertib + Palbociclib (first compound 0.005 µM) is 0.505; with Alisertib + Palbociclib (first compound 0.01581 µM), 0.529; with Alisertib + Palbociclib (first compound 0.05 µM), 0.511; in the experiment with Alisertib + Palbociclib (first compound 0.1581 µM) it was 0.501; in the experiment with Alisertib + Palbociclib (first compound 0.5 µM), 0.397; in the experiment with Alisertib + Bortezomib (first compound 0.005 µM), 0.509. Moreover, the relative viability with Alisertib + Bortezomib (first compound 0.01581 µM) was 0.427; with Alisertib + Bortezomib (first compound 0.05 µM) it was 0.388; in the experiment with Alisertib + Bortezomib (first compound 0.1581 µM), 0.364; with Alisertib + Bortezomib (first compound 0.5 µM), 0.405; with Alisertib + Alpelisib (first compound 0.005 µM) it was 0.728; with Alisertib + Alpelisib (first compound 0.01581 µM), 0.762. Further, the relative viability with Alisertib + Alpelisib (first compound 0.05 µM) came to 0.635; with Alisertib + Alpelisib (first compound 0.1581 µM), 0.442; in the experiment with Alisertib + Alpelisib (first compound 0.5 µM) it was 0.409; with Alisertib + Dasatinib (first compound 0.005 µM), 0.526; in the experiment with Alisertib + Dasatinib (first compound 0.01581 µM), 0.624; with Alisertib + Dasatinib (first compound 0.05 µM), 0.477. Besides, the results for the relative viability in the experiment with Alisertib + Dasatinib (first compound 0.1581 µM) and with Alisertib + Dasatinib (first compound 0.5 µM) were 0.351 and 0.296, respectively.
In the case of NCI-H2347, the relative viability in the experiment with Alisertib + Palbociclib (first compound 0.005 µM) stood at 0.427; with Alisertib + Palbociclib (first compound 0.01581 µM), 0.429; with Alisertib + Palbociclib (first compound 0.05 µM), 0.438; in the experiment with Alisertib + Palbociclib (first compound 0.1581 µM), 0.387; with Alisertib + Palbociclib (first compound 0.5 µM) it was 0.362; with Alisertib + Bortezomib (first compound 0.005 µM), 0.733. Moreover, the relative viability with Alisertib + Bortezomib (first compound 0.01581 µM) came out at 1.09; in the experiment with Alisertib + Bortezomib (first compound 0.05 µM) it was 0.911; with Alisertib + Bortezomib (first compound 0.1581 µM) it was 0.584; with Alisertib + Bortezomib (first compound 0.5 µM), 0.466; in the experiment with Alisertib + Alpelisib (first compound 0.005 µM) it was 0.903; with Alisertib + Alpelisib (first compound 0.01581 µM), 0.877. In addition, the relative viability with Alisertib + Alpelisib (first compound 0.05 µM) turned out to be 0.857; with Alisertib + Alpelisib (first compound 0.1581 µM) it was 0.637; in the experiment with Alisertib + Alpelisib (first compound 0.5 µM), 0.436; with Alisertib + Dasatinib (first compound 0.005 µM) it was 0.263; with Alisertib + Dasatinib (first compound 0.01581 µM) it was 0.339; in the experiment with Alisertib + Dasatinib (first compound 0.05 µM), 0.275. Moreover, the relative viability in the experiment with Alisertib + Dasatinib (first compound 0.1581 µM) was determined as 0.268; in the experiment with Alisertib + Dasatinib (first compound 0.5 µM), 0.222.
NCI-H2126: the relative viability with Alisertib + Palbociclib (first compound 0.005 µM) came out at 0.314; in the experiment with Alisertib + Palbociclib (first compound 0.01581 µM), 0.378; with Alisertib + Palbociclib (first compound 0.05 µM), 0.346; with Alisertib + Palbociclib (first compound 0.1581 µM), 0.304; in the experiment with Alisertib + Palbociclib (first compound 0.5 µM) it was 0.269; in the experiment with Alisertib + Bortezomib (first compound 0.005 µM), 1.03. For the same cell line, the relative viability was found to be 1.08 with Alisertib + Bortezomib (first compound 0.01581 µM); 0.993 with Alisertib + Bortezomib (first compound 0.05 µM); 0.526 in the experiment with Alisertib + Bortezomib (first compound 0.1581 µM); 0.351 with Alisertib + Bortezomib (first compound 0.5 µM); 0.746 with Alisertib + Alpelisib (first compound 0.005 µM); 0.746 in the experiment with Alisertib + Alpelisib (first compound 0.01581 µM). Also, the relative viability with Alisertib + Alpelisib (first compound 0.05 µM) came to 0.384; in the experiment with Alisertib + Alpelisib (first compound 0.1581 µM), 0.322; in the experiment with Alisertib + Alpelisib (first compound 0.5 µM), 0.246; with Alisertib + Dasatinib (first compound 0.005 µM), 0.55; with Alisertib + Dasatinib (first compound 0.01581 µM), 0.553; with Alisertib + Dasatinib (first compound 0.05 µM), 0.48. The relative viability worked out at 0.231 in the experiment with Alisertib + Dasatinib (first compound 0.1581 µM) and 0.215 with Alisertib + Dasatinib (first compound 0.5 µM).
In the case of HCC-827, the relative viability with Alisertib + Palbociclib (first compound 0.005 µM) is 0.459; in the experiment with Alisertib + Palbociclib (first compound 0.01581 µM), 0.537; in the experiment with Alisertib + Palbociclib (first compound 0.05 µM), 0.379; with Alisertib + Palbociclib (first compound 0.1581 µM), 0.27; with Alisertib + Palbociclib (first compound 0.5 µM), 0.207; with Alisertib + Bortezomib (first compound 0.005 µM) it was 1.01. Also, the relative viability with Alisertib + Bortezomib (first compound 0.01581 µM) came out at 1.06; in the experiment with Alisertib + Bortezomib (first compound 0.05 µM), 0.848; in the experiment with Alisertib + Bortezomib (first compound 0.1581 µM) it was 0.402; in the experiment with Alisertib + Bortezomib (first compound 0.5 µM), 0.401; with Alisertib + Alpelisib (first compound 0.005 µM), 1.05; with Alisertib + Alpelisib (first compound 0.01581 µM), 0.913. Besides, the relative viability with Alisertib + Alpelisib (first compound 0.05 µM) is 0.321; with Alisertib + Alpelisib (first compound 0.1581 µM), 0.282; with Alisertib + Alpelisib (first compound 0.5 µM) it was 0.232; with Alisertib + Dasatinib (first compound 0.005 µM), 0.279; with Alisertib + Dasatinib (first compound 0.01581 µM) it was 0.409; in the experiment with Alisertib + Dasatinib (first compound 0.05 µM) it was 0.246. The figures for the relative viability with Alisertib + Dasatinib (first compound 0.1581 µM) and with Alisertib + Dasatinib (first compound 0.5 µM) were 0.194 and 0.236, respectively.
As to NCI-H3122, the relative viability turned out to be 0.174 in the experiment with Alisertib + Palbociclib (first compound 0.005 µM); 0.174 with Alisertib + Palbociclib (first compound 0.01581 µM); 0.215 with Alisertib + Palbociclib (first compound 0.05 µM); 0.139 with Alisertib + Palbociclib (first compound 0.1581 µM); 0.149 with Alisertib + Palbociclib (first compound 0.5 µM); 0.987 with Alisertib + Bortezomib (first compound 0.005 µM). The relative viability is 1.04 with Alisertib + Bortezomib (first compound 0.01581 µM); 0.865 with Alisertib + Bortezomib (first compound 0.05 µM); 0.47 with Alisertib + Bortezomib (first compound 0.1581 µM); 0.308 with Alisertib + Bortezomib (first compound 0.5 µM); 0.741 in the experiment with Alisertib + Alpelisib (first compound 0.005 µM); 0.747 with Alisertib + Alpelisib (first compound 0.01581 µM). The relative viability with Alisertib + Alpelisib (first compound 0.05 µM) was found to be 0.472; with Alisertib + Alpelisib (first compound 0.1581 µM), 0.295; with Alisertib + Alpelisib (first compound 0.5 µM) it was 0.211; with Alisertib + Dasatinib (first compound 0.005 µM) it was 0.581; in the experiment with Alisertib + Dasatinib (first compound 0.01581 µM), 0.664; with Alisertib + Dasatinib (first compound 0.05 µM) it was 0.498. In addition, the relative viability came to 0.103 with Alisertib + Dasatinib (first compound 0.1581 µM) and 0.134 with Alisertib + Dasatinib (first compound 0.5 µM).
As for HOP-62, the relative viability worked out at 0.431 with Alisertib + Palbociclib (first compound 0.005 µM); 0.489 with Alisertib + Palbociclib (first compound 0.01581 µM); 0.233 in the experiment with Alisertib + Palbociclib (first compound 0.05 µM); 0.188 with Alisertib + Palbociclib (first compound 0.1581 µM); 0.14 in the experiment with Alisertib + Palbociclib (first compound 0.5 µM); 0.459 with Alisertib + Bortezomib (first compound 0.005 µM). The relative viability in the experiment with Alisertib + Bortezomib (first compound 0.01581 µM) stood at 0.703; with Alisertib + Bortezomib (first compound 0.05 µM) it was 0.82; with Alisertib + Bortezomib (first compound 0.1581 µM), 0.195; with Alisertib + Bortezomib (first compound 0.5 µM) it was 0.117; in the experiment with Alisertib + Alpelisib (first compound 0.005 µM), 0.926; in the experiment with Alisertib + Alpelisib (first compound 0.01581 µM), 0.976. Besides, the relative viability came out at 0.345 in the experiment with Alisertib + Alpelisib (first compound 0.05 µM); 0.198 with Alisertib + Alpelisib (first compound 0.1581 µM); 0.133 with Alisertib + Alpelisib (first compound 0.5 µM); 0.537 with Alisertib + Dasatinib (first compound 0.005 µM); 0.688 with Alisertib + Dasatinib (first compound 0.01581 µM); 0.433 with Alisertib + Dasatinib (first compound 0.05 µM). For the same cell line, the relative viability came out at 0.185 with Alisertib + Dasatinib (first compound 0.1581 µM) and 0.154 with Alisertib + Dasatinib (first compound 0.5 µM).
